The values below come from publication PMC7790557, “Pleiotropic Properties of Amphiphilic Dihydropyridines, Dihydropyridones, and Aminovinylcarbonyl Compounds” (Oxidative Medicine and Cellular Longevity, 2020).

The nature of data set [1]: Electrochemical oxidation potentials, cyclic voltammetry. The class given is physicochemical. Particulars: glassy carbon electrode, dry acetonitrile; for Oxidation potential E^ox: Table 4, vs Ag/Ag+, 0.1 M TBABF4, tested as perchlorates; for electrooxidation potential: cyclic voltammetry. Here is the method:
A stationary glassy carbon disk electrode (d = 0.5 mm) served as the working electrode, while the counterelectrode was a Pt wire. The oxidation potentials were measured relative to a Ag/Ag^+ reference electrode. Acetonitrile was dried over P2O5 and distilled; the distillate was stored over CaH2 and redistilled just before use. Recrystallized tetrabutylammonium tetrafluoroborate (TBABF4) was used as a supporting electrolyte at 0.1 M concentration.
The electrochemical oxidation of the selected compounds studied in this work was performed by cyclic voltammetry on a stationary glassy carbon electrode in dry acetonitrile; the data is presented in Table 4. The perchlorates of the tested amphiphiles were obtained from the corresponding bromides by treating their abs. MeOH solutions with excess of conc. HClO4 according to the procedure elaborated by Turovska et al..

Data set [2] can be described thus: Cytotoxicity, crystal violet (CV) assay, MH-22A. The settings on record: mouse, MH-22A cells (hepatoma); summarises CV and MTT values; read-out: cytotoxicity towards MH-22A cells. Format: cell-based, mouse. Here is the method:
(§1) After incubation, the staining solution was removed. The cells were washed 4 times with water.

Data set [3] deals with MH-22A (mouse hepatoma). In words: Cytotoxicity, crystal violet (CV) assay, MH-22A. Particulars: Mus musculus, 72 h exposure, read-out: MH-22A IC50 (CV). Format: cell-based. Here is the method: as §1
Data set [4] concerns NIH3T3 (mouse embryonic fibroblast). In words: Basal cytotoxicity test, Neutral Red Uptake (NRU) assay. Particulars: for IC50: Mus musculus, NIH3T3, 24 h.
Description: The NRU cytotoxicity assay procedure is based on the ability of viable cells to incorporate and bind neutral red, a supravital dye.
Balb/c NIH 3T3 (mouse Swiss albino embryo fibroblast, ATCC® CRL-1658™) cells (9000 cells/well) were placed into 96-well plates for 24 h in Dulbecco's modified Eagle's medium (DMEM) containing 5% fetal bovine serum. Then, the cells were exposed to the test compound over a range of seven concentrations (1000, 316, 100, 31, 10, 3, and 1 μg/ml) for 24 h. Untreated cells were used as a control. After 24 h, the medium was removed from all plates. Then, 150 μl of neutral red solution was added (0.05 mg/ml NR in DMEM 24 h preincubated at 37°C and then filtered before use through a 0.22 μm syringe filter). Plates were incubated for 3 h, and then, the cells were washed three times with PBS. The dye within viable cells was released by extraction with a mixture of acetic acid, ethanol, and water (1 : 50 : 49). The absorbance of neutral red was measured using a spectrophotometer multiplate reader (Tecan Infinite M1000) at 540 nm. The optical density (OD) was calculated using the following formula: OD (treated cells) × 100/OD (control cells). The IC50 values were calculated using the GraphPad Prism® 3.0 program.
The subject of data set [5] is MH-22A (mouse hepatoma). Briefly: Cytotoxicity, MTT assay, MH-22A. Format: cell-based. Particulars: Mus musculus, 72 h exposure, read-out: MH-22A IC50 (MTT). The text has this:
(§2) Reduction takes place only when mitochondrial reductase enzymes are active, and therefore, conversion is directly related to the number of viable cells which can be quantified by the absorbance of the solution (between λ = 500 and 600 nm) using a spectrophotometer.
(Formazan colour is commonly taken as a measure of viable cells.)

Data set [6] has as its system HT-1080 (human lung fibrosarcoma). Briefly: Cytotoxicity, MTT assay, HT-1080. The class given is cell-based. Particulars: Homo sapiens, HT-1080, 72 h exposure, read-out: HT-1080 IC50 (MTT).
Description: as §2

Data set [7] in a line: Cytotoxicity, crystal violet (CV) assay, HT-1080. The settings on record: human, HT-1080 cells (fibrosarcoma).
Description: (§3) IC50 is the compound concentration (μg/ml) at which 50% of the cells die. […] CV staining can be used to quantify the total DNA of the remaining population and thus is used to determine the number of live cells based on the concentration of the dye which remains after staining.
(§4) Tumor cell lines HT-1080 (human connective tissue fibrosarcoma, ATCC® CCL-121™) and MH-22A (mouse hepatocarcinoma, ECACC, cat. Nr. 96121721) were used.
(§5) HT-1080 and MH-22A cells were seeded in 96-well plates in Dulbecco's modified Eagle's (DMEM) medium containing 10% fetal bovine serum and 4 mM L-glutamine, without antibiotics, and cultivated for 72 h by exposure to different concentrations of compounds. Cell viability was measured using 3-(4,5-dimethylthiazol-2-yl)-2,5-diphenyltetrazolinium bromide (MTT). In brief, after incubating with compounds, the culture medium was removed and fresh medium with 0.2 mg/ml MTT was added in each well of the plate. After incubation (3 h, 37°C, 5% CO2), the medium with MTT was removed, and 200 μl DMSO was added at once to each sample. The samples were tested at 540 nm on a Tecan Infinite M1000 multiplate reader. The IC50 was calculated using the program GraphPad Prism® 3.0.
(§6) For the CV assay, cells were stained with 0.05% crystal violet (Sigma-Aldrich) in 30% methanol for 20 minutes at room temperature. After incubation, the staining solution was removed. The cells were washed 4 times with water. For dye solubilization, 200 μl of a solubilizing solution (0.1 M citrate buffer, pH 4.2 in 50% ethanol; 1 : 1 v/v) was added. The absorbance of the solution was measured using a Tecan Infinite M1000 multiplate spectrophotometer at a wavelength of 570 nm [21].
In data set [8] the test system is HT-1080 (human lung fibrosarcoma). In words: Cytotoxicity, crystal violet (CV) assay, HT-1080. Particulars: Homo sapiens, HT-1080, 72 h, read-out: HT-1080 IC50 (CV).
Description: as §3, §4, §5, §6
A short description of data set [9]: in vitro. Format: cell-based. Particulars: human and mouse, summarises both cell lines, CV and MTT, read-out: cytotoxicity on cancer cell lines HT-1080 and MH-22A. As for the experimental part: as §1
Data set [10] is described as follows: in vitro. Particulars: mouse. From the text: Data from the in vitro tests were used for estimating the starting dose for acute oral systemic toxicity tests in the rodent. The in vivo starting dose is an estimated LD50 value calculated by inserting the in vitroIC50 value into a regression formula: log LD50 (mM/kg) = 0.439 log IC50 (mM) + 0.621 [23–25]. […] Using an alternative in vitro method allows the comparison between possibly toxic new compounds and selecting compounds for further study vastly reducing the number of animal experiments.
Additionally, the compound influence on “normal” mouse fibroblasts (NIH3T3) was estimated for the studies of structure-activity relationships and exploration of the effect of substituents.

Setting [11] is: read-out: NIH3T3 IC50 (NR), Table 1, 24 h exposure.
The mark [12] stands for this setting: read-out: NIH3T3 IC50 (NR), Table 3, 24 h exposure.
Setting [13] is: NIH3T3 LD50, Table 3, calculated from NIH3T3 IC50 by regression formula.

Molecules are shown by their SMILES. Where two headings read alike, the source gives them in different places.

Take `O=C(OCCCCCCCCCCCC(F)(F)F)C1=C(C[n+]2ccccc2)NC(C[n+]2ccccc2)=C(C(=O)OCCCCCCCCCCCC(F)(F)F)C1c1ccccc1.[O-][Cl+3]([O-])([O-])[O-].[O-][Cl+3]([O-])([O-])[O-]` [compound 22, 1,1'-((4-phenyl-3,5-bis(((12,12,12-trifluorododecyl)oxy)carbonyl)-1,4-dihydropyridine-2,6-diyl)bis(methylene))bis(pyridin-1-ium) diperchlorate]: in data set [1], the “Oxidation potential E^ox” value came out at 1.57 V. In addition, the IC50 at 72 h in [2] was 10 to 19 µg/mL; in data set [7], 10 to 18 µg/mL. Also, the IC50 in the data set on MH-22A (mouse hepatoma) [3] (Table 1) was 10 ± 1 µg/mL; in [4] (setting [11]), 16 ± 3 µg/mL; in the data set on MH-22A (mouse hepatoma) [5] (Table 1) it was 19 ± 5 µg/mL; in data set [6] (Table 1) it was 10 ± 2 µg/mL; in [8], 18 ± 5 µg/mL.

Turning to `CCCCCCCCCCCCOC(=O)C1=C(C[n+]2cccc(C(C)=O)c2)NC(C[n+]2cccc(C(C)=O)c2)=C(C(=O)OCCCCCCCCCCCC)C1c1ccccc1.[Br-].[Br-]` [compound 14, 1,1'-((3,5-Bis((dodecyloxy)carbonyl)-4-phenyl-1,4-dihydropyridine-2,6-diyl)bis(methylene))bis(3-acetylpyridin-1-ium) dibromide], the IC50 at 72 h in data set [2] is 50 to 100 µg/mL; in data set [7] it was about 3 µg/mL. In addition, the IC50 in the data set with MH-22A (mouse hepatoma) [3] (Table 1) amounted to 100 ± 13 µg/mL; in [4] (read-out: NIH3T3 IC50 (NR)), 922 ± 24 µg/mL; in the data set on MH-22A (mouse hepatoma) [5] (Table 1), 49 ± 9 µg/mL; in [6] (Table 1), 3 ± 0.3 µg/mL; in data set [8] it was 3 ± 0.4 µg/mL. The “toxicity to noncancerous NIH3T3 cells (in words)” value in data set [4] is recorded as “practically nontoxic”.

Turning to `CCCCCCCCCCCCOC(=O)C1=C(C[n+]2ccc(C(F)(F)F)cc2)NC(C[n+]2ccc(C(F)(F)F)cc2)=C(C(=O)OCCCCCCCCCCCC)C1c1ccccc1.[Br-].[Br-]` [compound 21, 1,1'-((3,5-Bis((dodecyloxy)carbonyl)-4-phenyl-1,4-dihydropyridine-2,6-diyl)bis(methylene))bis(4-(trifluoromethyl)pyridin-1-ium) dibromide], in data set [1], the “Oxidation potential E^ox” value worked out at 1.63 V. Moreover, the electrooxidation potential in [1] is reported as 1.63 V. Besides, the IC50 at 72 h in data set [2] is 19 to 49 µg/mL; in [7], 2 to 4 µg/mL. The IC50 worked out at 49 ± 8 µg/mL with MH-22A (mouse hepatoma) [3] (Table 1); 12 ± 4 µg/mL in data set [4] (read-out: NIH3T3 IC50 (NR)); 19 ± 6 µg/mL in the data set with MH-22A (mouse hepatoma) [5] (Table 1); 4 ± 0.5 µg/mL in [6] (Table 1); 2 ± 0.3 µg/mL in [8].

`CCCCCCCCCCCCOC(=O)c1c(C[n+]2ccccc2)nc(C[n+]2ccccc2)c(C(=O)OCCCCCCCCCCCC)c1-c1ccccc1.[Br-].[Br-]` [compound 27, 1,1’-((3,5-Bis(dodecyloxycarbonyl)-4-phenylpyridine-2,6-diyl)bis(methylene))-bis(pyridin-1-ium)dibromide]: the IC50 in the data set on MH-22A (mouse hepatoma) [3] (Table 1) was 3 ± 0.3 µg/mL; in data set [4] (read-out: NIH3T3 IC50 (NR)), 900 ± 42 µg/mL; with MH-22A (mouse hepatoma) [5] (Table 1), 3.3 ± 0.4 µg/mL; in data set [6] (Table 1), 3.1 ± 0.5 µg/mL; in data set [8] it was 3.2 ± 0.8 µg/mL. Moreover, the “toxicity to noncancerous NIH3T3 cells (in words)” value in data set [4] is “not harmful at all”. In addition, the IC50 at 72 h in the data set “in vitro [9]” (HT-1080 cells and MH-22A cells (the value covers both lines)) was about 3 µg/mL. Besides, the LD50 (commonly the dose expected to kill half of the subjects tested) in “in vitro [10]” (LD50 (calculated, NIH3T3), calculated from NIH3T3 IC50) was 3950 mg/kg.

Turning to `CCCCCCCCCCCCCCCCOC(=O)/C=C(\N)C[N+](C)(C)CCCCCC` [compound 43, (Z,E)-N-(2-Amino-4-(hexadecyloxy)-4-oxobut-2-en-1-yl)-N,N-dimethylhexan-1-aminium chloride], the IC50 in the data set with MH-22A (mouse hepatoma) [3] (Table 3) was 2 ± 0.2 µg/mL; in data set [4] (setting [12]) it was 21 ± 6 µg/mL; with MH-22A (mouse hepatoma) [5] (Table 3), 1 ± 0.2 µg/mL; in [6] (Table 3) it was 2 ± 0.4 µg/mL; in [8], 3 ± 0.6 µg/mL. The LD50 in the data set “in vitro [10]” (setting [13]) was 538 mg/kg.

For `CCCCCCCCCCCCOC(=O)C1=C(C[n+]2ccccc2)NC(C[n+]2ccccc2)=C(C(=O)OCCCCC(F)(F)C(F)(F)C(F)(F)C(F)(F)C(F)(F)C(F)(F)C(F)(F)C(F)(F)F)C1c1ccccc1` (centres unmarked) [compound 23, Dodecyl 5,5,6,6,7,7,8,8,9,9,10,10,11,11,12,12,12-heptadecafluorododecyl 1,4-dihydro-2,6-dimethyl-4-phenylpyridine-3,5-dicarboxylate-2,6-dipyridinium dibromide], the “Oxidation potential E^ox” value in data set [1] stood at 1.70 V. For the same compound, the electrooxidation potential in data set [1] is 1.69–1.70 V. Besides, the IC50 with MH-22A (mouse hepatoma) [3] (Table 1) was 47 ± 2 µg/mL; in data set [4] (setting [11]) it was 477 ± 25 µg/mL; in the data set “in vitro [9]”, 47 to 75 µg/mL; in the data set on MH-22A (mouse hepatoma) [5] (Table 1), 75 ± 11 µg/mL; in data set [6] (Table 1) it was 47 ± 8 µg/mL; in data set [8], 50 ± 6 µg/mL.

For `CCCCCCCCCCCCOC(=O)C1=C(C[n+]2ccc(C)cc2)NC(C[n+]2ccc(C)cc2)=C(C(=O)OCCCCCCCCCCCC)C1c1ccccc1.[Br-].[Br-]` [compound 12, 1,1'-((3,5-Bis((dodecyloxy)carbonyl)-4-phenyl-1,4-dihydropyridine-2,6-diyl)bis(methylene))bis(4-methylpyridin-1-ium) dibromide], the IC50 at 72 h in data set [2] fell in the range of 29 to 40 µg/mL; in data set [7], 5 to 10 µg/mL. Besides, the IC50 came to 40 ± 2 µg/mL with MH-22A (mouse hepatoma) [3] (Table 1); 79 ± 11 µg/mL in [4] (read-out: NIH3T3 IC50 (NR)); 29 ± 2 µg/mL in the data set on MH-22A (mouse hepatoma) [5] (Table 1); 5 ± 1 µg/mL in [6] (Table 1); 10 ± 2 µg/mL in data set [8].

In the case of `CCCCCCCCCCCCCCCCOC(=O)/C=C(\N)C[N+](C)(C)C1CCCCC1` [compound 39, (Z,E)-N-(2-Amino-4-(hexadecyloxy)-4-oxobut-2-en-1-yl)-N,N-dimethylcyclohexanaminium chloride], the IC50 turned out to be 1 ± 0.6 µg/mL in the data set on MH-22A (mouse hepatoma) [3] (Table 3); 0.7 ± 0.1 µg/mL in data set [4] (setting [12]); 0.2 ± 0.06 µg/mL in the data set with MH-22A (mouse hepatoma) [5] (Table 3); 0.5 ± 0.1 µg/mL in data set [6] (Table 3); 0.35 ± 0.06 µg/mL in data set [8]. In addition, in “in vitro [10]” (setting [13]), the LD50 was 97 mg/kg.

As to `CCCCCCCCCCCC[N+](C)(C)C/C(N)=C/C(=O)OCCCCCCCCCC` [compound 48, (Z,E)-N-(2-Amino-4-(decyloxy)-4-oxobut-2-en-1-yl)-N,N-dimethyldodecan-1-aminium chloride], the results for the IC50 (in the data set with MH-22A (mouse hepatoma) [3] (Table 3); in data set [4] (setting [12]); in data set [8]) were 2 ± 0.2 µg/mL, 17 ± 3 µg/mL and 3 ± 0.4 µg/mL, respectively. The LD50 in the data set “in vitro [10]” (setting [13]) was 485 mg/kg.

As for `CCCCCCCCCCCCCCCCOC(=O)/C=C(\N)C[N+](C)(C)CCCCCCCCCCCC` [compound 45, (Z,E)-N-(2-Amino-4-(hexadecyloxy)-4-oxobut-2-en-1-yl)-N,N-dimethyldodecan-1-aminium chloride], the “IC50 in NIH3T3 cell lines” value in data set [4] is recorded as “around 30 μg/ml”. The IC50 in data set [4] (setting [12]) worked out at 25 ± 9 µg/mL. Also, in the data set “in vitro [10]” (setting [13]), the LD50 is 573 mg/kg.

`CCCCCCCCCCCCOC(=O)/C=C(\N)C[n+]1ccccc1` [compound 47, (Z,E)-1-(2-Amino-4-(dodecyloxy)-4-oxobut-2-en-1-yl)pyridin-1-ium iodide]: the IC50 is 2 ± 0.1 µg/mL in the data set with MH-22A (mouse hepatoma) [3] (Table 3), 14 ± 9 µg/mL in [4] (setting [12]) and 3 ± 0.4 µg/mL in data set [8]. Further, the LD50 in “in vitro [10]” (setting [13]) was 403 mg/kg.
